Test [1] deals with TRPV1 (Rattus norvegicus, UniProt O35433, D509A). Description: excised inside-out patch clamp, Xenopus oocytes. Format: cell-based.
For test [2], the target named is TRPV1 (Rattus norvegicus, UniProt O35433). The test can be described thus: excised inside-out patch clamp, Xenopus oocytes; partial inhibition with PtdIns([…])P2, partial activation without it. To be noted: read-out: % inhibition at 50 μM. Format: cell-based. (In general: Patch clamp records ionic current or voltage across a cell membrane.)
Chain of TRPV1 (Rattus norvegicus, UniProt O35433) (O35433 whole entry): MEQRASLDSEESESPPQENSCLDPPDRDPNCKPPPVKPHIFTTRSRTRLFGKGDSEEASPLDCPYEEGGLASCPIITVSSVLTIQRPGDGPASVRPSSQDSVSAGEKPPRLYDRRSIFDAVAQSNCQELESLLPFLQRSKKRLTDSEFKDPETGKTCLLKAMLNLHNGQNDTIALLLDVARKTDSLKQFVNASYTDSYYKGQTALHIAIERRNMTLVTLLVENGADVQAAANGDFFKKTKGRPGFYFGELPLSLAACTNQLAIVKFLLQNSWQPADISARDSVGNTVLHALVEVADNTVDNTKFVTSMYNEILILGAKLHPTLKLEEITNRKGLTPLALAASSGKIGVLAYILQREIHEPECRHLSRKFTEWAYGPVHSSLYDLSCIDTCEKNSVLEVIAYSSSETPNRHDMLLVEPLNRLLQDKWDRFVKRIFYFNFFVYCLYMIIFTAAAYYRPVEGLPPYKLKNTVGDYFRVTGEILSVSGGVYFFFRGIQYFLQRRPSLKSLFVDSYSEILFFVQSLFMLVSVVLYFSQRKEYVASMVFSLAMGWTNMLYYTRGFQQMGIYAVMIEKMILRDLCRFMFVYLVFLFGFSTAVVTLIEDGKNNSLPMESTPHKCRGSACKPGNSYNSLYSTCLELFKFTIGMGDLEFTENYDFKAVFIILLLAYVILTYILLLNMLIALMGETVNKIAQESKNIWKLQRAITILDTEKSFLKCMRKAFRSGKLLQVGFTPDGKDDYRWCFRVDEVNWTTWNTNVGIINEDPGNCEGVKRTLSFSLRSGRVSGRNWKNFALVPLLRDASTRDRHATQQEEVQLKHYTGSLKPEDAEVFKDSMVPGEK

Chain of TRPV1 (Rattus norvegicus, UniProt O35433, D509A) (O35433 whole entry D509A): as the sequence (O35433 whole entry) above, with D509A counted along it

Consider `CCCCCCCC(=O)OC[C@H](COP(=O)(O)O[C@@H]1[C@H](O)[C@H](O)[C@@H](O)[C@H](O)[C@H]1O)OC(=O)CCCCCCC` [diC8 PtdIns], for which the “excised inside-out patch clamp, Xenopus oocytes” value at TRPV1 [1] is “The D509A mutant on the other hand was clearly inhibited by PtdIns”. Also, at TRPV1 [2], the inhibition (usually how much of the control response was suppressed) at 50 µM was about 50%.
